Assay results published in PubChem BioAssay AID272 (DTP/NCI, 2004).
Inconclusive results are not listed.

Test system: Lewis lung carcinoma i.m., BDF1 mice, T/C %
Assay: NCI In Vivo Anticancer Drug Screen. Data for tumor model Lewis Lung Carcinoma (intramuscular) in B6D2F1 (BDF1) mice
Description: The antitumor activity of compounds was measured in mice bearing transplantable tumors. Survival or tumor size were measured and the results are expressed as the measurement made in the treated group (T) divided by the measurement made in the vehicle treated control group (C). The tumor model used in this assay is Lewis Lung Carcinoma (intramuscular) in B6D2F1 (BDF1) mice

[1] = endpoint: median survival time, dose: 39.0 mg/kg/injection, schedule: Q01DX011 (ip), vehicle: saline, higher = longer survival
[2] = endpoint: median survival time, dose: 65.0 mg/kg/injection, schedule: Q01DX011 (ip), vehicle: saline, higher = longer survival
[3] = endpoint: median survival time, dose: 75.0 mg/kg/injection, schedule: Q01DX011 (ip), vehicle: saline, higher = longer survival

With `O=C[C@@H](CO)O[C@H](C=O)n1cnc2c(=O)[nH]cnc21` the T/C (endpoint: mean tumor weight, dose: 37.5 mg/kg/injection, schedule: Q01DX011 (ip), vehicle: saline, higher = larger tumour) was 53 % of control, the T/C (endpoint: mean tumor weight, dose: 39.0 mg/kg/injection, schedule: Q01DX011 (ip), vehicle: saline, higher = larger tumour) was 49 % of control and the T/C (endpoint: mean tumor weight, dose: 65.0 mg/kg/injection, schedule: Q01DX011 (ip), vehicle: saline, higher = larger tumour) was 74 % of control. The T/C (endpoint: mean tumor weight, dose: 75.0 mg/kg/injection, schedule: Q01DX011 (ip), vehicle: saline, higher = larger tumour) was 71 % of control, the T/C (endpoint: mean tumor weight, dose: 108.0 mg/kg/injection, schedule: Q01DX011 (ip), vehicle: saline, higher = larger tumour) was 60 % of control and the T/C (endpoint: mean tumor weight, dose: 150.0 mg/kg/injection, schedule: Q01DX011 (ip), vehicle: saline, higher = larger tumour) was 46 % of control. The T/C [1] was 115 % of control, the T/C [2] was 115 % of control and the T/C [3] was 113 % of control. The T/C (endpoint: median survival time, dose: 108.0 mg/kg/injection, schedule: Q01DX011 (ip), vehicle: saline, higher = longer survival) was 103 % of control.
In the case of `CC1OC(O[C@@H]2C=C3CC[C@@H]4[C@H](CC[C@]5(C)[C@@H](c6ccc(=O)oc6)CC[C@]45O)[C@@]3(C)CC2)C(O)C(O)C1O` (stereo not given in full), the T/C (endpoint: mean tumor weight, dose: 0.31 mg/kg/injection, schedule: Q01DX011 (ip), vehicle: steriod suspending solution, higher = larger tumour) is reported as 92 % of control, the T/C (endpoint: mean tumor weight, dose: 0.62 mg/kg/injection, schedule: Q01DX011 (ip), vehicle: steriod suspending solution, higher = larger tumour) is reported as 114 % of control and the T/C (endpoint: mean tumor weight, dose: 1.25 mg/kg/injection, schedule: Q01DX011 (ip), vehicle: steriod suspending solution, higher = larger tumour) is reported as 36 % of control. The T/C (endpoint: mean tumor weight, dose: 2.5 mg/kg/injection, schedule: Q01DX011 (ip), vehicle: steriod suspending solution, higher = larger tumour) was 50 % of control, the T/C (endpoint: median survival time, dose: 0.31 mg/kg/injection, schedule: Q01DX011 (ip), vehicle: steriod suspending solution, higher = longer survival) was 122 % of control and the T/C (endpoint: median survival time, dose: 1.25 mg/kg/injection, schedule: Q01DX011 (ip), vehicle: steriod suspending solution, higher = longer survival) was 113 % of control. The T/C (endpoint: median survival time, dose: 2.5 mg/kg/injection, schedule: Q01DX011 (ip), vehicle: steriod suspending solution, higher = longer survival) was 119 % of control.
For `O=C(O)C1CSCN1` (stereo not given), the T/C (endpoint: median survival time, dose: 12.5 mg/kg/injection, schedule: Q01DX011 (ip), vehicle: saline, higher = longer survival) was 118 % of control, the T/C (endpoint: median survival time, dose: 25.0 mg/kg/injection, schedule: Q01DX011 (ip), vehicle: saline, higher = longer survival) was 105 % of control and the T/C (endpoint: median survival time, dose: 50.0 mg/kg/injection, schedule: Q01DX011 (ip), vehicle: saline, higher = longer survival) was 97 % of control. For the same molecule, the T/C (endpoint: median survival time, dose: 100.0 mg/kg/injection, schedule: Q01DX011 (ip), vehicle: saline, higher = longer survival) was 105 % of control.
With `CCN(CC)CCNc1ccc(CO)c2sc3ccccc3c(=O)c12` the T/C (endpoint: mean tumor weight (est.), dose: 18.75 mg/kg/injection, schedule: Q01DX011 (ip), vehicle: saline, higher = larger tumour) was 110 % of control, the T/C (endpoint: mean tumor weight (est.), dose: 37.5 mg/kg/injection, schedule: Q01DX011 (ip), vehicle: saline, higher = larger tumour) was 56 % of control and the T/C (endpoint: mean tumor weight (est.), dose: 75.0 mg/kg/injection, schedule: Q01DX011 (ip), vehicle: saline, higher = larger tumour) was 19 % of control. The T/C (endpoint: median survival time, dose: 18.75 mg/kg/injection, schedule: Q01DX011 (ip), vehicle: saline, higher = longer survival) was 105 % of control, the T/C (endpoint: median survival time, dose: 37.5 mg/kg/injection, schedule: Q01DX011 (ip), vehicle: saline, higher = longer survival) was 107 % of control and the T/C [3] was 113 % of control.
In the case of `O=c1[nH]c(=O)n([C@H]2CCCO2)cc1F`, the T/C (endpoint: mean tumor weight (est.), dose: 39.0 mg/kg/injection, schedule: Q01DX011 (ip), vehicle: saline, higher = larger tumour) is reported as 112 % of control, the T/C (endpoint: mean tumor weight (est.), dose: 65.0 mg/kg/injection, schedule: Q01DX011 (ip), vehicle: saline, higher = larger tumour) is reported as 40 % of control and the T/C (endpoint: median survival time, dose: 25.0 mg/kg/injection, schedule: Q04DX004 (ip), vehicle: other, higher = longer survival) is reported as 112 % of control. For the same molecule, the T/C [1] was 90 % of control, the T/C (endpoint: median survival time, dose: 50.0 mg/kg/injection, schedule: Q04DX004 (ip), vehicle: other, higher = longer survival) was 100 % of control and the T/C [2] was 119 % of control. For the same molecule, the T/C (endpoint: median survival time, dose: 100.0 mg/kg/injection, schedule: Q04DX004 (ip), vehicle: other, higher = longer survival) was 100 % of control and the T/C (endpoint: median survival time, dose: 200.0 mg/kg/injection, schedule: Q04DX004 (ip), vehicle: other, higher = longer survival) was 103 % of control.
For `CC(=O)C(O)N1C(=O)C=CC1=O` (stereo not given), the T/C (endpoint: median survival time, dose: 0.62 mg/kg/injection, schedule: Q01DX011 (ip), vehicle: water, higher = longer survival) was 88 % of control, the T/C (endpoint: median survival time, dose: 1.25 mg/kg/injection, schedule: Q#A X022 (ip), vehicle: water, higher = longer survival) was 120 % of control and the T/C (endpoint: median survival time, dose: 2.5 mg/kg/injection, schedule: Q01DX011 (ip), vehicle: water, higher = longer survival) was 123 % of control. The T/C (endpoint: median survival time, dose: 2.5 mg/kg/injection, schedule: Q#A X022 (ip), vehicle: water, higher = longer survival) was 120 % of control and the T/C (endpoint: median survival time, dose: 5.0 mg/kg/injection, schedule: Q#A X022 (ip), vehicle: water, higher = longer survival) was 113 % of control.
